We go through five compounds from article PMC7955072 (Nature Communications, 2021).

“Also recorded” adds a separate entry of the source.

In assay [1] the test system is IleRS. The settings on record: cited from earlier work.
In assay [2] the target is full-length ScIleRS (Saccharomyces cerevisiae, UniProt P09436). Nature of the assay: Fluorescence-based thermal shift assay (TSA), full-length ScIleRS wild-type. It is filed as binding. The settings on record: for △Tm: Wild-type, difference between Tm with and without ligands; for increase of Tm value of ScIleRS: single ligand (50 μM RM-A, 2 mM L-isoleucine, 2 mM ATP or 50 μM Ile-AMS), Tm without ligand approximately 54 °C. How it is done:
(§1) Ligand binding usually stabilizes the protein during the thermal denaturation process, and tighter binding usually causes a larger positive shift in the protein melting temperature (Tm)[45]. […] The fluorescence intensity was recorded by a StepOnePlus Real-Time PCR instrument (Life Technologies), and the maximums of the first derivatives were determined to calculate Tm values. Each Tm value was an average of triple assays.

Assay [3] deals with ScIleRS D527A (Saccharomyces cerevisiae, UniProt P09436, D527A). Format: binding. On the procedure: as §1
Assay [4] concerns the target ScIleRS F48A (Saccharomyces cerevisiae, UniProt P09436, F48A). It is filed as binding. On the procedure:
as §1

For assay [5], the target named is ScIleRS Y571A (Saccharomyces cerevisiae, UniProt P09436, Y571A). It is filed as binding. On the procedure:
as §1

The target of assay [6] is ScIleRS W529A (Saccharomyces cerevisiae, UniProt P09436, W529A). Format: binding. How it is done:
as §1

Assay [7] has as its target ScIleRS W456A (Saccharomyces cerevisiae, UniProt P09436, W456A). Format: binding. On the procedure: as §1
The target of assay [8] is ScIleRS R460A (Saccharomyces cerevisiae, UniProt P09436, R460A). It is filed as binding. How it is done: as §1
The target in assay [9] is ScIleRS R462A (Saccharomyces cerevisiae, UniProt P09436, R462A). Format: binding. How it is done:
as §1

The target in assay [10] is ScIleRS W449A (Saccharomyces cerevisiae, UniProt P09436, W449A). Format: binding. How it is done:
as §1

Assay [11] deals with ScIleRS W402A (Saccharomyces cerevisiae, UniProt P09436, W402A). Format: binding. On the procedure: as §1
The target of assay [12] is ScIleRS F48Y (Saccharomyces cerevisiae, UniProt P09436, F48Y). Format: binding. On the procedure: as §1
Assay [13] deals with ScIleRS del_KMSKS (Saccharomyces cerevisiae, UniProt P09436, DEL601-605/K608S/L607G). It is filed as binding. On the procedure: as §1
Assay [14] concerns the target ScIleRS P90A (Saccharomyces cerevisiae, UniProt P09436, P90A). It is filed as binding. On the procedure: as §1
Assay [15] addresses ScIleRS V89A (Saccharomyces cerevisiae, UniProt P09436, V89A). It is filed as binding. How it is done:
as §1

The target of assay [16] is ScIleRS R454A (Saccharomyces cerevisiae, UniProt P09436, R454A). It is filed as binding. On the procedure:
as §1

Assay [17] concerns the target ScIleRS T572A (Saccharomyces cerevisiae, UniProt P09436, T572A). It is filed as binding. How it is done: as §1
The target in assay [18] is ScIleRS F191A (Saccharomyces cerevisiae, UniProt P09436, F191A). It is filed as binding. On the procedure:
as §1

Assay [19] has as its target C-terminal truncated ScIleRS (residues 1-984) (Saccharomyces cerevisiae, UniProt P09436). Nature of the assay: Fluorescence-based thermal shift assay (TSA), C-terminal truncated ScIleRS. Format: binding. The settings on record: protein bound with copurified Ile-AMP. How it is done:
The binding of RM-A to IleRS and the impact of intermediate analogue (Ile-AMS, MedChemExpress) or substrates on binding were evaluated by the fluorescence-based thermal shift assay (TSA). Ligand binding usually stabilizes the protein during the thermal denaturation process, and tighter binding usually causes a larger positive shift in the protein melting temperature (Tm)[45]. […]. The mixtures were incubated at 25 °C for 10 min and then heated from 25 °C to 95 °C at a rate of 1 °C/min. The fluorescence intensity was recorded by a StepOnePlus Real-Time PCR instrument (Life Technologies), and the maximums of the first derivatives were determined to calculate Tm values. Each Tm value was an average of triple assays.

full-length ScIleRS, sequence (P09436 whole entry): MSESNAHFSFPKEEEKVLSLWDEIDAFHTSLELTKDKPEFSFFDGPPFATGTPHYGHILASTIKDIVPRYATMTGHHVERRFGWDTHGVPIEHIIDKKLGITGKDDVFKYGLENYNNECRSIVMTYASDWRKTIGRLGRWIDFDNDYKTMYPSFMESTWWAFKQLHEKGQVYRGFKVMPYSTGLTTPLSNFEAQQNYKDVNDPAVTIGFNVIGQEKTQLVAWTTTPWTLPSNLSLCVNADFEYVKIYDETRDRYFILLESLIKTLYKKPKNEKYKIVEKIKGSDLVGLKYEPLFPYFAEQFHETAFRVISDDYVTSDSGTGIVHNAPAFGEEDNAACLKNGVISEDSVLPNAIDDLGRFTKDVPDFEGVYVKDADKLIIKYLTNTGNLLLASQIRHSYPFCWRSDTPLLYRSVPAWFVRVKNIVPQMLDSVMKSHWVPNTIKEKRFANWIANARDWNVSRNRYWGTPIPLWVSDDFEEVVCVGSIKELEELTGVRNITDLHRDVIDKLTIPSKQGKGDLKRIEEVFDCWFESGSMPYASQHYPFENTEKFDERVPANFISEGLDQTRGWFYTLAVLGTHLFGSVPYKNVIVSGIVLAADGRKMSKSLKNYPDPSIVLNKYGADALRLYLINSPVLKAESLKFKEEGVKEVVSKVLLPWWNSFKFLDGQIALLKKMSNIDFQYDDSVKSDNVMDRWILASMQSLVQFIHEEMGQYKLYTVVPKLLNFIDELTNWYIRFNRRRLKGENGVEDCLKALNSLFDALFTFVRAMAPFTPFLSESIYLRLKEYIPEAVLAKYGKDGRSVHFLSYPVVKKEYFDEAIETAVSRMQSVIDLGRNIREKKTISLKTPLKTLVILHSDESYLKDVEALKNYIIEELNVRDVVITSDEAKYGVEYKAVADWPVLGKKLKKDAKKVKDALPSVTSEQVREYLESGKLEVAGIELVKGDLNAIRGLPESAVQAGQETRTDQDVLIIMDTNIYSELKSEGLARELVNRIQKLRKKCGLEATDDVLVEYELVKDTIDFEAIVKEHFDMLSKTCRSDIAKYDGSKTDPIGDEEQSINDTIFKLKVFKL
C-terminal truncated ScIleRS (residues 1-984), sequence (P09436 1-984): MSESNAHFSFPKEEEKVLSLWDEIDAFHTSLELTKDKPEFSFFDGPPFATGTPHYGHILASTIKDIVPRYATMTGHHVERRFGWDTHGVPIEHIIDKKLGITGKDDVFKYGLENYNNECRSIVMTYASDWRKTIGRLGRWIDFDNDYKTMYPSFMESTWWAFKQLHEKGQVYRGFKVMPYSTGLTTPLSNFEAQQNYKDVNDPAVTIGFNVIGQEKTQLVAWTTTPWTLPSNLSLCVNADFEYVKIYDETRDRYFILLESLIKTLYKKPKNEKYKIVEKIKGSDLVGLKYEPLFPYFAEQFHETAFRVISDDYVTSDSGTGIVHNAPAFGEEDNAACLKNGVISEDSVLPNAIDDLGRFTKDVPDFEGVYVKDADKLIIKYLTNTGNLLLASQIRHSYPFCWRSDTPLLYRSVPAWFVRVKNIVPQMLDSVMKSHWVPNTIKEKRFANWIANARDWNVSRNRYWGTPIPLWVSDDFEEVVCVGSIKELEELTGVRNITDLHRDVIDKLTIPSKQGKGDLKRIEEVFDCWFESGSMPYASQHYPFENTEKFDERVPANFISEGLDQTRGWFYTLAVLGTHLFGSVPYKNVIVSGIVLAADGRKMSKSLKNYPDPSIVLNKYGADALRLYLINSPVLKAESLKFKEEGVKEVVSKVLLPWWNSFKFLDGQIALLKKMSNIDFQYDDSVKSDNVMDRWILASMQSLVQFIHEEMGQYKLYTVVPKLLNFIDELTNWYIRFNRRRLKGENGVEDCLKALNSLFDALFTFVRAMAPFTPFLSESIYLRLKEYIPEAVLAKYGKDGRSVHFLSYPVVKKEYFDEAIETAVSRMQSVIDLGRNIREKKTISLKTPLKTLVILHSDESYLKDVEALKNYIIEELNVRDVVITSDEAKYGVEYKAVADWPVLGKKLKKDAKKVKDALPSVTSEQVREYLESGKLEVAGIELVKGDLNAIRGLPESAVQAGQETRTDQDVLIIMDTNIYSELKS
ScIleRS del_KMSKS, sequence (P09436 other isoform, or with tags, fused parts or gaps DEL601-605/L607G/K608S): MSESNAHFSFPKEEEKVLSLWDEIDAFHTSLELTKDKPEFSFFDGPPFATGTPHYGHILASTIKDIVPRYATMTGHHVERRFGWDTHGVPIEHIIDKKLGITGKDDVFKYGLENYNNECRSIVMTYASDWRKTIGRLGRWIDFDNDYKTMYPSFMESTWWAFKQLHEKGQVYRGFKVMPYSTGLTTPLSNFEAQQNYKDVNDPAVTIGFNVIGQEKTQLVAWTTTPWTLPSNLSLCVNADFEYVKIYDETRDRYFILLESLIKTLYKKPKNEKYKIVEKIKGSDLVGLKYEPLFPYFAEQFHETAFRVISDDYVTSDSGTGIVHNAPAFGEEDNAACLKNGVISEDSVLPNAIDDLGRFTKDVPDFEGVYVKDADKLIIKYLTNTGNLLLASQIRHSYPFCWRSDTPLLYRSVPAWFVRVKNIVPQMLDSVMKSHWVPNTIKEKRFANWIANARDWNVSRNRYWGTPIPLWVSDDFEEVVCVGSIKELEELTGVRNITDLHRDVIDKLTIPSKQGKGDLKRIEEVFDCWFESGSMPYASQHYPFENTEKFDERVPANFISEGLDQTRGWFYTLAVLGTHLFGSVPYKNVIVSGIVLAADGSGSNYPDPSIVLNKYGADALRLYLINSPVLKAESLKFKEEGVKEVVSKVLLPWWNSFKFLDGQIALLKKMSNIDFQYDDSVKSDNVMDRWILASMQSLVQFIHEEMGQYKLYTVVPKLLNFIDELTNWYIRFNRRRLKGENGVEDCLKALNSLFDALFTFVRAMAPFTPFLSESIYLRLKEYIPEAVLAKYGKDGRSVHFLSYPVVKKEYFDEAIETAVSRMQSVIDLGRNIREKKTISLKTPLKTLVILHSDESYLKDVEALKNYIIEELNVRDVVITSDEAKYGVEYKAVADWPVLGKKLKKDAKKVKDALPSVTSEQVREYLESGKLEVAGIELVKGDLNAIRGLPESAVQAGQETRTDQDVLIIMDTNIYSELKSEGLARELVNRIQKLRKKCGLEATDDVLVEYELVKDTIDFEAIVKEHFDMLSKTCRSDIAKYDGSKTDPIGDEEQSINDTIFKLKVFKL
ScIleRS T572A, sequence (P09436 whole entry T572A): as the sequence (P09436 whole entry) above, with T572A counted along it
ScIleRS F48A, sequence (P09436 whole entry F48A): as the sequence (P09436 whole entry) above, with F48A counted along it
ScIleRS R460A, sequence (P09436 whole entry R460A): as the sequence (P09436 whole entry) above, with R460A counted along it
ScIleRS D527A, sequence (P09436 whole entry D527A): as the sequence (P09436 whole entry) above, with D527A counted along it
ScIleRS W449A, sequence (P09436 whole entry W449A): as the sequence (P09436 whole entry) above, with W449A counted along it
ScIleRS Y571A, sequence (P09436 whole entry Y571A): as the sequence (P09436 whole entry) above, with Y571A counted along it
ScIleRS F191A, sequence (P09436 whole entry F191A): as the sequence (P09436 whole entry) above, with F191A counted along it
ScIleRS P90A, sequence (P09436 whole entry P90A): as the sequence (P09436 whole entry) above, with P90A counted along it
ScIleRS W402A, sequence (P09436 whole entry W402A): as the sequence (P09436 whole entry) above, with W402A counted along it
ScIleRS W456A, sequence (P09436 whole entry W456A): as the sequence (P09436 whole entry) above, with W456A counted along it
ScIleRS R454A, sequence (P09436 whole entry R454A): as the sequence (P09436 whole entry) above, with R454A counted along it
ScIleRS V89A, sequence (P09436 whole entry V89A): as the sequence (P09436 whole entry) above, with V89A counted along it
ScIleRS F48Y, sequence (P09436 whole entry F48Y): as the sequence (P09436 whole entry) above, with F48Y counted along it
ScIleRS W529A, sequence (P09436 whole entry W529A): as the sequence (P09436 whole entry) above, with W529A counted along it
ScIleRS R462A, sequence (P09436 whole entry R462A): as the sequence (P09436 whole entry) above, with R462A counted along it

Regarding `CC(/C=C/[C@H](O)[C@@H](C)/C=C/C(=O)O)=C\C[C@H]1O[C@@]2(CC[C@H](C)[C@H](/C=C/C(C)=C/C(=O)O)O2)CC[C@@H]1C` [SF-A, Spirofungin A], in [1], the “inhibition of IleRS” value is “only weakly inhibit”.

For reveromycin T [RM-T], the “inhibitory activity against IleRS compared with RM-A” value in assay [1] is given as “stronger inhibitory activity; also recorded: even higher inhibitory activity”.

With `CC[C@H](C)[C@H](N)C(=O)NS(=O)(=O)OC[C@H]1O[C@@H](n2cnc3c(N)ncnc32)[C@H](O)[C@@H]1O` [Ile-AMS], the “△Tm” value is 23.4 °C in assay [2]; 24.2 °C in assay [3]; 12.5 °C in [4]; 24.6 °C in assay [5]; 18.4 °C in assay [6]; 18.8 °C in assay [7]. The “△Tm” value was 25.7 °C in [8]; 26 °C in assay [9]; 24.9 °C in assay [10]; 24.2 °C in assay [11]; 21.6 °C in [12]; 20.2 °C in [13]. Moreover, the “△Tm” value in [14] was 22.1 °C; in assay [15] it was 24.7 °C; in assay [16] it was 21.6 °C; in [17], 22.7 °C; in [18], 26.5 °C. Further, the “increase of Tm value of ScIleRS” value in [2] was roughly 23 °C.

On to `CC[C@H](C)[C@H](N)C(=O)O` [L-isoleucine], for which the “△Tm” value in assay [2] was 7.9 °C; in assay [3], 5.2 °C; in [4] it was 0.2 °C; in [5], 4 °C; in [6], 1.9 °C; in assay [7], 0.7 °C. Besides, the “△Tm” value is 3.1 °C in assay [8]; 4 °C in assay [9]; 7.8 °C in assay [10]; 6.9 °C in assay [11]; 4.4 °C in [12]; 8.5 °C in [13]. The “△Tm” value in assay [14] amounted to 6.4 °C; in assay [15], 4.7 °C; in assay [16], 6.6 °C; in [17] it was 4.8 °C; in assay [18] it was 8.3 °C. In [2], the “increase of Tm value of ScIleRS” value is roughly 8 °C. In addition, in assay [19], the “Tm value of C-terminal truncated ScIleRS” value is “not improved”.

Regarding `Nc1ncnc2c1ncn2[C@@H]1O[C@H](COP(=O)(O)OP(=O)(O)OP(=O)(O)O)[C@@H](O)[C@H]1O` [ATP], the “increase of Tm value of ScIleRS” value in [2] is “approximately 4 °C”. The “Tm value of C-terminal truncated ScIleRS” value in [19] is recorded as “not improved”.
